Reference: US20100240040A1, “METHOD FOR SCREENING FOR SELECTIVE MODULATOR OF THE NF-KB PATHWAY ACTIVATION” (INSTITUT PASTEUR, priority 2007, published 2010)
Where a SMILES comes first, the peptide text is derived from it.

Tests used:
[1] = tested on: ERK and p38 pathway; assay: SRE-luc reporter assay in Jurkat cells stimulated with PMA and ionomycin; assay type: cell-based, human; conditions: 5 μM peptide, T-lymphocytes
Description: (§1) Jurkat T cells (clone 20) were transiently transfected by a DEAE-dextran method with a reporter plasmid containing the luciferase under the control of a promoter inducible by the ERK and p38 pathway (SRE-luc; Courtois et al., 1997, Mol. Cell. Biol, 17:1441-1449), the NF-AT pathway or the API pathway (respectively NF-AT-luc and AP1-luc; Northrop et al., 1993, J. Biol. […]., 268:2917-2923). Briefly, cells were washed and resuspended at 10^7 cells/ml in TBS containing 0.5 mg/ml of DEAE-dextran (Pharmacia). 1 μg per 2·10^6 cells of reporter plasmid was added. After 45 min at room temperature, the cells were diluted with 10 volumes of TBS, centrifuged, and resuspended at 10^6 cells/ml in 10% FCS-RPMI. After 24 h, cells were incubated with or without 5 μM NEMO-derived peptides (BA-NLM or BA-DR NLM) for 2 h. They were stimulated or mock-stimulated with 100 ng/ml PMA and 1 μg/ml ionomycin for 5 h, and finally lysed in luciferase buffer (25 mM Tris-phosphate pH 7.8 containing 8 mM MgCl2, 1 mM DTE, 1% Triton X100, 15% glycerol). Luciferase measurement was carried out in a Berthold Luminometer.

[2] = tested on: AP1 pathway; assay: AP1-luc reporter assay in Jurkat cells stimulated with PMA and ionomycin; assay type: cell-based, human; conditions: 5 μM peptide, T-lymphocytes
Description: as §1

[3] = tested on: NF-AT pathway; assay: NF-AT-luc reporter assay in Jurkat cells stimulated with PMA and ionomycin; assay type: cell-based, human; conditions: 5 μM peptide, T-lymphocytes
Description: as §1

[4] = target: T1, Flag-NEMO (Mus musculus, UniProt O88522, A144V/E216G/P360T/S248N); assay: Pull-down of Flag-NEMO from JM4.5.2/Flag-NEMO cells treated with Bodipy-conjugated peptides, bead fluorescence; assay type: cell-based, murine; conditions: 20 μM peptide, 4 h
T1 construct: expressed in transfected cells
Description: 5·10^6 JM4.5.2/Flag-NEMO cells were seeded in 6-well plates (3 ml/well) and incubated with 20 μM of Bodipy-conjugated peptides (BA-NLM or BA-DR NLM) for 4 h at 37° C. Cells were centrifuged at 400×g for 5 min, resuspended in 200 μl of an hypotonic buffer (10 mM TrisHCl pH 7.9, 1.5 mM MgCl2, 10 mM KCl), left on ice for 20 min and lysed by several passage through a 26 G needle. Lysates were clarified at 15 000×g for 20 min and 80 μg of total proteins were incubated with 40 μl of agarose anti-Flag M2 beads for 1 h at 4° C. The Flag-NEMO protein were pulled down with the agarose anti-Flag M2 beads by centrifugation for 1 min. Beads were resuspended in 100 μl of hypotonic buffer and the fluorescence of NEMO linked peptide was read on microplate reader from SAFAS. NEMO coated beads were analyzed by Western blotting using anti-Flag M2 monoclonal antibodies to normalize the sample using the UN-SCAN-IT software. […]

[5] = target: T2, CC2-LZ interaction with cellular polyubiquitinylated proteins (Mus musculus, UniProt O88522); assay: Pull-down of polyubiquitinylated proteins from JM4.5.2 extracts with biotinylated CC2-LZ, anti-ubiquitin Western blot; assay type: biochemical; conditions: 20 μM peptide, extracts of TNF-α stimulated JM4.5.2 cells
T2 construct: made in house; host or cells: chemical synthesis (bait); crude extract of JM4.5.2 cells with or without TNFα (partners)
Description: 24·10^7 JM4.5.2 cells were stimulated or not with 10 ng/ml of TNFα for 10 minutes at 37° C., washed twice with cold PBS and lysed in 900 μl of lysis buffer containing a protease inhibitor mixture as indicated in Example 1.D. Lysates were clarified at 15 000×g at 4° C. for 30 min. 150 μl of proteins were incubated 2 h at 4° C. with 150 μl of streptavidin magnetic beads (MagPrep®, Novagen) pre-incubated 1 h at 4° C. with 10 μg of biotynilated-CC2-LZ and with or without 20 μM of peptides (BA-NLM or BA-DR NLM). Beads were washed 4 times in buffer A (10 mM Hepes pH 7.5, 150 mM NaCl, 8 mM MgCl2, 10% glycerol, 0.1 mM DDM and 1 mM DTE) and resuspended in 30 μl of laemmli buffer containing 6 M Urea. Samples were analysed by Western blotting using anti-ubiquitin antibodies (Sigma) as well as anti-NDPK-B antibodies for loading controls.
Thus, the Inventors examined whether DR NLM impedes the interaction between NEMO and the K63 polyubiquitin chains. To this end, they developed a pull down assay which uses the a peptide comprising the CC2 and the LZ domains of NEMO as a bait to pull down the polyubiquitinylated proteins as described in Example 1.J and depicted in FIG. 7A. […] After extensive washing of beads, all mono and polyubiquitinylated proteins bound to CC2-LZ were analysed by Western blot using anti-ubiquitin antibody (Sigma).

[6] = target: T3, Lys63-linked polyubiquitin chains (Homo sapiens, UniProt P0CG47); assay: In vitro binding assay by fluorescence polarization to polyubiquitin chains; conditions: tag-free peptide
T3 construct: the Lys63-linked polyubiquitin chains; purchased Boston Biochem

[7] = Circular dichroism and gel filtration, self-association of peptides; assay type: physicochemical; conditions: peptide concentration up to 100 μM; data not shown
Description: Far-UV circular dichroism (CD) measurements were performed with an Aviv 215 spectropolarimeter with samples diluted in 10 mM NaPO4 at pH 7.
Then, unlike the LZ peptide, DR NLM peptide as well as NLM peptide are unable to self-associate. Self association of LZ peptide is described by Agou et al., 2004b.

[8] = tested on: NF-κB pathway; conditions: reported in WO 2005/027959; cited from earlier work

T2 sequence (O88522 253-336): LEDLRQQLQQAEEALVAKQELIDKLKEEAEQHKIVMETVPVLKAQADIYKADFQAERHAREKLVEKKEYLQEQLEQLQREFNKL
T1 sequence (O88522 with tags, fused parts or gaps A144V/E216G/S248N/P360T): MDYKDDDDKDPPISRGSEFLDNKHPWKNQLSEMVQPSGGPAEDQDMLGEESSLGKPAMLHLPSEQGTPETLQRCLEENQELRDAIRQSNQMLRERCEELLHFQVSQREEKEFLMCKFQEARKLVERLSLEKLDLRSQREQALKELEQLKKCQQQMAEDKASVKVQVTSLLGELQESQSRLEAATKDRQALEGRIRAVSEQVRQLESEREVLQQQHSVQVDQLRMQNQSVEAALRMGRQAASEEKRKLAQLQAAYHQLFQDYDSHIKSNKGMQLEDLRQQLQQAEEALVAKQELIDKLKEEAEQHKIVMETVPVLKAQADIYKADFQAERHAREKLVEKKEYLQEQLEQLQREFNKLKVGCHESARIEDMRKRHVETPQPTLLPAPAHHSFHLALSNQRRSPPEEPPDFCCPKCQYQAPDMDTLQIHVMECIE

- peptide bound to NEMO in cells (bead fluorescence) [4]: binds specifically to NEMO
- cooperativity index (Hill coefficient) n [6]: 1
- Kd ([6]; read-out: dissociation constant for Lys63-linked polyubiquitin chains): 250 µM
- oligomeric state / self-association [7]: behave as monomer
SMILES: CC[C@H](C)[C@H](NC(=O)[C@H](CC(=O)O)NC(=O)[C@H](C)NC(=O)[C@H](CCC(N)=O)NC(=O)[C@H](C)NC(=O)[C@H](CCCCN)NC(=O)[C@H](CC(C)C)NC(C)=O)C(=O)N[C@@H](Cc1ccc(O)cc1)C(=O)N[C@@H](CCCCN)C(=O)N[C@@H](C)C(=O)N[C@@H](CCCNC(=N)N)C(=O)N[C@@H](Cc1ccccc1)C(=O)N[C@@H](CCC(N)=O)C(=O)N[C@@H](C)C(=O)N[C@@H](CCC(=O)O)C(=O)N[C@@H](CCCNC(=N)N)C(=O)N[C@@H](Cc1c[nH]cn1)C(=O)N[C@@H](C)C(=O)N[C@@H](CCCNC(=N)N)C(=O)N[C@@H](CCC(=O)O)C(=O)N[C@@H](CCCCN)C(N)=O [DR NLM] (Ac-LKAQADIYKARFQAERHAREK-NH2; N-terminus and C-terminus assumed)
- effect on ERK and p38 pathways [1]: does not abrogate
- effect on AP1 pathway [2]: does not abrogate
- effect on NF-AT pathway [3]: does not abrogate
- inhibition of CC2-LZ interaction with polyubiquitinylated proteins [5]: abolishes the CC2-LZ interaction with the cellular polyubiquitinylated proteins
- inhibition of NF-κB activation [8]: inhibit NF-κB activation
